Results: patent publication US20110105477A1, “COMPOSITIONS AND METHODS RELATING TO HIV PROTEASE INHIBITION” (The Regents of the University of Michigan, priority 2007, published 2011)

Target: HIV-1 protease (Human immunodeficiency virus type 1 group M subtype B, UniProt P04585)
Assay: HIV protease inhibition assay
Assay type: biochemical
Details: for Remain Activity: remaining HIV-1 protease activity at 150 μM compound

SMILES | Remain Activity | also measured
CC1=CC(C)(C)Nc2ccc(OC(=O)c3cccs3)cc21 | 64.08% | –
CC1=CC(C)(C)Nc2ccc(OC(=O)c3cccnc3)cc21 | 58.86% | –
Cc1cc(=O)n2nc(N3C(=O)[C@H]4CCCC[C@H]4C3=O)nc2[nH]1 | 67.49% | –
O=c1c2c([nH]c3nc(COc4ccccc4)nn13)CCC2 | 57.77% | –
O=C(Nc1ccc2[nH]c(=S)sc2c1)c1ccccc1 | 65.14% | –
Cc1cc(=O)n2nc(NCc3cccs3)nc2[nH]1 | 63.59% | –
CC1=CC(C)(C)Nc2ccc(OC(=O)c3ccco3)cc21 | 69.67% | –
CC1=CC(C)(C)Nc2ccc(OC(=O)c3cccc4ccccc34)cc21 | 65.34% | –
CC1=CC(C)(C)Nc2ccc(OC(=O)c3ccc4c(c3)OCO4)cc21 | 63.58% | –
O=C1c2cccc([N+](=O)[O-])c2C(=O)N1c1ccc2[nH]c(=S)sc2c1 | 36.93% | –
COc1cc(OC)cc(C(=O)Oc2ccc3c(c2)C(C)=CC(C)(C)N3)c1 | 59.22% | –
CCOc1ccccc1CNc1nc2[nH]c3c(c(=O)n2n1)CCC3 | 75.44% | –
O=C1[C@H]2CCCC[C@H]2C(=O)N1c1ccc2[nH]c(=S)sc2c1 | 51.9% | –
CC1=CC(C)(C)Nc2ccc(OC(=O)c3ccccc3Br)cc21 [drawing 433] | 65.33% | –
O=C(Nc1ccc(F)cc1F)c1cc2n(n1)[C@H](C(F)(F)F)[C@H]1CCCC[C@H]1N2 | 64.91% | –
CC1=CC(C)(C)Nc2ccc(OC(=O)c3cccc([N+](=O)[O-])c3)cc21 | 73.01% | –
CC1=NNc2nc3c(c(=O)n(Cc4ccccc4)c(=O)n3C)n2C1 | 65.08% | –
COc1ccc(C(=O)Oc2ccc3c(c2)C(C)=CC(C)(C)N3)cc1 [Compound 2] | – | IC50 (HIVp inhibition): 18 µM
Cc1[nH]c2nc(NCc3cccc(Br)c3)nn2c(=O)c1Cl | 71.2% | –
CC1=CC(C)(C)Nc2ccc(OC(=O)c3ccccc3Br)cc21 [Compound 3] | – | activity in HIVp inhibition assay (in words): active
CC1=CC(C)(C)Nc2ccc(OC(=O)c3sc4cc([N+](=O)[O-])ccc4c3Cl)cc21 | 56.93% | –
